Measured values taken from patent publication US11141452B2, “Bifunctional compounds for relief of pain comprising an opioid receptor agonist moiety and a NK1 receptor antagonist moiety and methods for treating pain” (THE ARIZONA BOARD OF REGENTS ON BEHALF OF THE UNIVERSITY OF …, priority 2014, dated 2021).
Where “and” joins values, the source holds several entries; their conditions need not be identical. Equal entries are not always repeated. Where two headings read alike, the source gives them in different places. Non-standard residues stand in square brackets, D forms with d. Residues, ends and D or L forms follow the SMILES beside them. *: point of attachment. NH(3,5-(CF3)2-benzyl) = FC(F)(F)c1cc(CN*)cc(C(F)(F)F)c1; NMeBn(3,5-(CF3)2) = CN(Cc1cc(C(F)(F)F)cc(C(F)(F)F)c1)*; NMeF = CN[C@@H](Cc1ccccc1)C(=O)O

Legend:
[1] = target: T1, DOR (Mus musculus, UniProt P32300); assay: Mouse isolated vas deferens (MVD) functional assay; assay type: cell-based
T1 construct: Male ICR mice under CO2 anesthesia were sacrificed by cervical dislocation and the vasa differentia removed; from tissue; host or cells: mouse vas deferens (ICR mice)
T1 sequence (P32300 whole entry): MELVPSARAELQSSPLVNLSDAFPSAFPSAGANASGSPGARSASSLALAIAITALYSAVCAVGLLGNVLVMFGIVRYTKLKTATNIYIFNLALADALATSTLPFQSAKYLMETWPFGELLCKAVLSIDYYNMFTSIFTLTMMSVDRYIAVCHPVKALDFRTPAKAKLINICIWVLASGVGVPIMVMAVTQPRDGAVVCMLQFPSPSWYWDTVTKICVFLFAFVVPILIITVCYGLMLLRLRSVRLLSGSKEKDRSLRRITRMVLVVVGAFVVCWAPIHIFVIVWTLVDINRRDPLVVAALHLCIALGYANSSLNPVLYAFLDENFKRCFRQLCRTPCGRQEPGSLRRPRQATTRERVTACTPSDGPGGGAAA

[2] = target: MOR; assay: Radioligand binding assay at μ opioid receptor; conditions: for Log[IC50±] (μ): log IC50 ± error; for Ki^μ/Ki^δ: ratio of binding affinities MOR/DOR
Procedure: (§1) Binding affinities of these ligands were measured on radioligand binding assays. […] ([43]).

[3] = tested on: MOR; assay: Guinea pig isolated ileum (GPI) functional assay; assay type: cell-based
[4] = target: T2, NK1R (Cavia porcellus, UniProt P30547); assay: GPI/LMMP functional assay at NK1R (agonist and antagonist testing); assay type: cell-based, guinea pig; conditions: for GPI/LMMP (NK1R) Agonist: agonist activity at the concentration in the cell
T2 construct: The longitudinal muscle with myenteric plexus (LMMP) was carefully separated from the circular muscle; from tissue; host or cells: guinea pig ileum longitudinal muscle with myenteric plexus
T2 sequence (P30547 whole entry): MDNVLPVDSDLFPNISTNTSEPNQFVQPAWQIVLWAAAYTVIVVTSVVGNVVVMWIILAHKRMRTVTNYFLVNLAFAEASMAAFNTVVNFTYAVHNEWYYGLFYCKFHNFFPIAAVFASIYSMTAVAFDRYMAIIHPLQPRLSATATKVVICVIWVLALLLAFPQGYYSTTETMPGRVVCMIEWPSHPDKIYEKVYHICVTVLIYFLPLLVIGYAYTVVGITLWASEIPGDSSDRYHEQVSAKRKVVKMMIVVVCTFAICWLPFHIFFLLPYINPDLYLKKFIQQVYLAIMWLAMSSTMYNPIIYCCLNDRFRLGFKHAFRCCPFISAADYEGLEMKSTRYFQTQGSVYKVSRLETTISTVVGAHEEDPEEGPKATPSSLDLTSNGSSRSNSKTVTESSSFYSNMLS

[5] = target: DOR (Homo sapiens, UniProt P41143); assay: Radioligand binding assay at δ opioid receptor; conditions: for Ki: Ki^δ (nM)
Chain of DOR (Homo sapiens, UniProt P41143) (P41143 whole entry): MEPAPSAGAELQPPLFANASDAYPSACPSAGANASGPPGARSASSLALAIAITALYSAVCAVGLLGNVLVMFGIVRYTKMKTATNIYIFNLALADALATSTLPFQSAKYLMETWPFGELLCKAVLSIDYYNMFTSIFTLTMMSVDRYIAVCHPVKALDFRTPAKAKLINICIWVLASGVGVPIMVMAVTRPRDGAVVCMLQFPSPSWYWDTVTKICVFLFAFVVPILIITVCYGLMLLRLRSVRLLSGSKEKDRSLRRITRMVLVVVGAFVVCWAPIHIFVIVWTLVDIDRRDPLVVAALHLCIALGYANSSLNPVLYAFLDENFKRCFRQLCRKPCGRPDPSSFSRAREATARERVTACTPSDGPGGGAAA
Procedure: as §1

[6] = target: T3, hNK1 (Homo sapiens, UniProt P25103); assay: hNK1/CHO cell membrane radioligand binding assay ([3H]SP); conditions: for Ki^hNK1/Ki^rNK1: ratio human/rat NK1; for Ki: Ki^hNK1 (nM), hNK1/CHO membranes, [3H]SP
T3 construct: expressed in transfected cells; host or cells: CHO
T3 sequence (P25103 whole entry): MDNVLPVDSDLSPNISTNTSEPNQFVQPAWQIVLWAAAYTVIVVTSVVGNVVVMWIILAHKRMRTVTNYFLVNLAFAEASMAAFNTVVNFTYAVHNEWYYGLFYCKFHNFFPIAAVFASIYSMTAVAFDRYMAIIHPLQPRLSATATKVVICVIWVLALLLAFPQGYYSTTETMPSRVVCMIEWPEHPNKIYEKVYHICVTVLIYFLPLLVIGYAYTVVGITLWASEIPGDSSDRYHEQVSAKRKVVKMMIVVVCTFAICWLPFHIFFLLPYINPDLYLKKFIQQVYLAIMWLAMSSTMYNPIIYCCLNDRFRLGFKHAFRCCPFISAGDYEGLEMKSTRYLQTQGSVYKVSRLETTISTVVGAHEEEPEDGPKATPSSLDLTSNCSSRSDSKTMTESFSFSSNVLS

[7] = MVD (DOR) IC50 (nM), agonist activity, electrically stimulated tissue
[8] = agonist activity, electrically stimulated tissue, read-out: GPI (MOR) IC50
[9] = GPI/LMMP (NK1R) Ke (nM) ± S.E.M., antagonist activity
[10] = antagonist activity, read-out: GPI/LMMP (NK1R) Ke (nM) ± S.E.M.

SMILES | IC50 [1, 7] [nM] | Log[IC50±] (μ) [2] | IC50 [3, 8] | Kb [4, 9] | Ki [2] [nM] | IC50 [1] [nM] | Kb [4] [nM] | GPI/LMMP (NK1R) Agonist [4] | IC50 [5] [nM] | Ki [5] [nM] | Ki^hNK1/Ki^rNK1 [6] | Ki^μ/Ki^δ [2] | GPI/MVD IC50 ratio [3] | higher agonist activity at DOR compared to MOR (functional assays) [1] [times] | Kb [4, 10] | GPI (MOR) % at 1 uM ([3]; at 1 uM) [% at 1 uM] | Ki [6] [nM] | binding selectivity for MOR over DOR [2] [times] | IC50 ([3]; head of Table IX, read-out: GPI (MOR) ID50) [nM]
CC(C)C[C@H](NC(=O)[C@@H]1CCCN1C(=O)[C@H](Cc1ccccc1)N(C)C(=O)CNC(=O)[C@@H](C)NC(=O)[C@@H](N)Cc1ccc(O)cc1)C(=O)N[C@@H](Cc1c[nH]c2ccccc12)C(=O)NCc1cc(C(F)(F)F)cc(C(F)(F)F)c1 [AKG117, H-Tyr-D-Ala-Gly-NMePhe-Pro-Leu-Trp-NH-Bn(3′,5′-(CF3)2)] | 100 | −7.05 ± 0.04 | 230 nM and 232 nM |  |  |  |  |  |  |  |  |  |  |  |  |  |  |  | 
Cc1cc(O)cc(C)c1C[C@H](N)C(=O)N[C@H](C)C(=O)NCC(=O)N[C@@H](Cc1ccc(Br)cc1)C(=O)N1CCC[C@H]1C(=O)N[C@@H](CC(C)C)C(=O)N[C@@H](Cc1c[nH]c2ccccc12)C(=O)NCc1cc(C(F)(F)F)cc(C(F)(F)F)c1 [AKG192, H-Dmt-D-Ala-Gly-Phe(4-Br)-Pro-Leu-Trp-NH-Bn(3′,5′-(CF3)2)] |  | −7.96 ± 0.12 | 463 ± 114 nM | 23.4 ± 8.9 nM | 5 |  |  |  |  |  |  |  |  |  |  |  |  |  | 
CC(C)C[C@H](NC(=O)[C@@H]1CCCN1C(=O)Cc1ccc(NC(=O)[C@H](Cc2ccccc2)N(C)C(=O)CNC(=O)[C@@H](C)NC(=O)[C@@H](N)Cc2ccc(O)cc2)cc1)C(=O)N[C@@H](Cc1c[nH]c2ccccc12)C(=O)NCc1cc(C(F)(F)F)cc(C(F)(F)F)c1 [AKG177, H-Tyr-D-Ala-Gly-NMePhe-4-Apac-Pro-Leu-Trp-NH-Bn(3′,5′-(CF3)2)] |  | −8.68 ± 0.19 | 41 nM and 40.8 nM |  | 1 | 35 ± 7.89 | 39.2 ± 7.9 | None at 100 nM | 148 | 70 | 1/14 | 1/70 | 1/1 |  |  |  |  |  | 
CC(C)C[C@H](NC(=O)[C@@H]1CCCN1C(=O)CCCCCNC(=O)[C@H](Cc1ccccc1)N(C)C(=O)CNC(=O)[C@@H](C)NC(=O)[C@@H](N)Cc1ccc(O)cc1)C(=O)N[C@@H](Cc1c[nH]c2ccccc12)C(=O)NCc1cc(C(F)(F)F)cc(C(F)(F)F)c1 [AKG124, H-Tyr-D-Ala-Gly-NMePhe-[4]6-Ahx-Pro-Leu-Trp-NH-Bn(3′,5′-(CF3)2)] |  | −7.80 ± 0.09 | 255 ± 71.2 nM |  | 7 | 36.8 ± 13.6 | 11.2 ± 3.1 | None at 100 nM | 72.4 |  | 1/36 |  | 7/1 |  |  |  |  |  | 
CC(C)C[C@H](NC(=O)[C@@H]1CCCN1C(=O)Cc1ccc(CNC(=O)[C@H](Cc2ccccc2)N(C)C(=O)CNC(=O)[C@@H](C)NC(=O)[C@@H](N)Cc2ccc(O)cc2)cc1)C(=O)N[C@@H](Cc1c[nH]c2ccccc12)C(=O)NCc1cc(C(F)(F)F)cc(C(F)(F)F)c1 [AKG178, H-Tyr-D-Ala-Gly-NMePhe-4-Ampa-Pro-Leu-Trp-NH-Bn(3′,5′-(CF3)2)] |  |  | 650 nM and 654 nM |  |  |  |  | None at 300 nM |  |  | 1/21 |  | 15/1 | 15 | 76 nM |  |  |  | 
Cc1cc(O)cc(C)c1C[C@H](N)C(=O)N[C@H](C)C(=O)NCC(=O)N[C@@H](Cc1ccc(I)cc1)C(=O)N1CCC[C@H]1C(=O)N[C@@H](CC(C)C)C(=O)N[C@@H](Cc1c[nH]c2ccccc12)C(=O)NCc1cc(C(F)(F)F)cc(C(F)(F)F)c1 [AKG193, H-Dmt-D-Ala-Gly-Phe(4-I)-Pro-Leu-Trp-NH-Bn(3′,5′-(CF3)2)] |  | −7.88 ± 0.07 |  |  | 6 |  |  |  |  |  |  |  |  |  |  | 41 |  |  | 
CC(C)C[C@H](NC(=O)[C@@H]1CCCN1C(=O)CCNC(=O)[C@H](Cc1ccccc1)N(C)C(=O)CNC(=O)[C@@H](C)NC(=O)[C@@H](N)Cc1ccc(O)cc1)C(=O)N[C@@H](Cc1c[nH]c2ccccc12)C(=O)NCc1cc(C(F)(F)F)cc(C(F)(F)F)c1 [AKG119, H-Tyr-D-Ala-Gly-NMePhe-β-Ala-Pro-Leu-Trp-NH-Bn(3′,5′-(CF3)2)] |  | −7.76 ± 0.11 | 365 ± 186 nM |  | 8 |  |  | None at 100 nM |  |  | 1/32 |  | 10/1 |  |  |  |  |  | 
CC(C)C[C@H](NC(=O)[C@@H]1CCCN1C(=O)[C@H](CO)NC(=O)[C@H](Cc1ccccc1)N(C)C(=O)CNC(=O)[C@@H](C)NC(=O)[C@@H](N)Cc1ccc(O)cc1)C(=O)N[C@@H](Cc1c[nH]c2ccccc12)C(=O)NCc1cc(C(F)(F)F)cc(C(F)(F)F)c1 [AKG126] (H-Y[dA]G[NMeF]SPLW-{NH(3,5-(CF3)2-benzyl)}) | 25.9 ± 6.69 | −8.30 ± 0.11 | 240 nM | 17 nM and 16.5 nM | 2 |  |  | None at 30 nM | 148 |  | 1/37 | 1/31 | 9/1 | 9 |  |  | 1 | 31 | 237 ± 29.2
Cc1cc(O)cc(C)c1C[C@H](N)C(=O)N[C@H](C)C(=O)NCC(=O)N(C)[C@@H](Cc1ccc(F)cc1)C(=O)N1CCC[C@H]1C(=O)N[C@@H](CC(C)C)C(=O)N[C@@H](Cc1c[nH]c2ccccc12)C(=O)NCc1cc(C(F)(F)F)cc(C(F)(F)F)c1 [AKG128, H-Dmt-D-Ala-Gly-NMePhe(4-F)-Pro-Leu-Trp-NH-Bn(3′,5′-(CF3)2)] | 11.5 ± 5.6 | −8.55 ± 0.18 | 76.5 nM | 11.2 ± 2.7 nM | 1 |  |  | None at 30 nM |  |  | 1/13 | 1/4 |  | ~7 |  |  |  |  | 
CC(C)C[C@H](NC(=O)[C@@H]1CCCN1C(=O)[C@H](Cc1ccc(O)cc1)NC(=O)CNC(=O)[C@H](Cc1ccccc1)NC(=O)[C@@H](C)NC(=O)[C@@H](N)Cc1ccc(O)cc1)C(=O)N[C@@H](Cc1c[nH]c2ccccc12)C(=O)NCc1cc(C(F)(F)F)cc(C(F)(F)F)c1 [AKG114] (H-Y[dA]FGYPLW-{NH(3,5-(CF3)2-benzyl)}) |  | −8.02 ± 0.04 | 110 nM and 112 nM |  | 4 |  |  |  |  |  |  |  |  | 4 | 15 nM |  |  |  | 
Cc1cc(O)cc(C)c1C[C@H](N)C(=O)N[C@H](C)C(=O)NCC(=O)N[C@@H](Cc1ccc(Cl)cc1)C(=O)N1CCC[C@H]1C(=O)N[C@@H](CC(C)C)C(=O)N[C@@H](Cc1c[nH]c2ccccc12)C(=O)NCc1cc(C(F)(F)F)cc(C(F)(F)F)c1 [AKG191, H-Dmt-D-Ala-Gly-Phe(4-Cl)-Pro-Leu-Trp-NH-Bn(3′,5′-(CF3)2)] | 25.4 ± 7.7 | −8.33 ± 0.09 | 166 ± 71.6 nM |  | 2 |  |  | None at 300 nM |  |  | 1/9 |  |  |  |  |  |  |  | 
Cc1cc(O)cc(C)c1C[C@H](N)C(=O)N[C@H](C)C(=O)NCC(=O)N[C@@H](Cc1ccccc1)C(=O)N1CCC[C@H]1C(=O)N[C@@H](CC(C)C)C(=O)N[C@@H](Cc1c[nH]c2ccccc12)C(=O)NCc1cc(C(F)(F)F)cc(C(F)(F)F)c1 [AKG116, H-Dmt-D-Ala-Gly-Phe-Pro-Leu-Trp-NH-Bn(3′,5′-(CF3)2)] | 3.1 | −8.63 ± 0.04 | 80.8 nM |  | 3 |  |  | None at 100 nM | 2.19 | 1 | 1/19 | 3/1 | 26/1 | 26 | 25 nM and 24.9 nM |  | 1.4 |  | 
CC(C)C[C@H](NC(=O)[C@@H]1CCCN1C(=O)[C@H](Cc1ccc(O)cc1)NC(=O)CNC(=O)[C@H](Cc1ccccc1)NC(=O)[C@@H](C)NC(=O)[C@@H](N)Cc1ccc(O)cc1)C(=O)N[C@@H](Cc1c[nH]c2ccccc12)C(=O)N(C)Cc1cc(C(F)(F)F)cc(C(F)(F)F)c1 [QXP04] (H-Y[dA]FGYPLW-{NMeBn(3,5-(CF3)2)}) |  | −7.66 ± 0.05 | 389 ± 180 nM |  | 10 |  |  | None at 1 uM |  |  |  | 1/7 | 23/1 |  |  |  |  |  | 
CCCC[C@H](NC(=O)[C@H](Cc1ccccc1)N(C)C(=O)CNC(=O)[C@@H](C)NC(=O)[C@@H](N)Cc1ccc(O)cc1)C(=O)N1CCC[C@H]1C(=O)N[C@@H](CC(C)C)C(=O)N[C@@H](Cc1c[nH]c2ccccc12)C(=O)NCc1cc(C(F)(F)F)cc(C(F)(F)F)c1 [AKG112, H-Tyr-D-Ala-Gly-NMePhe-Nle-Pro-Leu-Trp-NH-Bn(3′,5′-(CF3)2)] | 11.6 ± 2.55 | −7.51 ± 0.04 | 718 nM | 5.4 ± 2.1 nM | 13 |  |  |  | 50.1 |  |  |  |  |  |  |  |  |  | 
CC(C)C[C@H](NC(=O)[C@@H]1CCCN1C(=O)CCCNC(=O)[C@H](Cc1ccccc1)N(C)C(=O)CNC(=O)[C@@H](C)NC(=O)[C@@H](N)Cc1ccc(O)cc1)C(=O)N[C@@H](Cc1c[nH]c2ccccc12)C(=O)NCc1cc(C(F)(F)F)cc(C(F)(F)F)c1 [AKG123, H-Tyr-D-Ala-Gly-NMePhe-γ-Abu-Pro-Leu-Trp-NH-Bn(3′,5′-(CF3)2)] |  | −7.73 ± 0.07 | 424 ± 148 nM |  | 9 | 50.1 ± 17.4 | 2.3 ± 0.7 |  | 5.89 | 3 |  |  |  |  |  |  |  |  | 
